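Briefly, cells in 96-well plates were exposed to five compound concentrations for 48 h, and endpoints were estimated by linear interpolation. TGI marks complete inhibition of growth.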
What was measured:
Assay in all cases: growth of human tumour cells (NCI), 48 h
786-0 renal = tested on: 786-0 renal
A498 renal = tested on: A498 renal
A549 NSCLC = tested on: A549 NSCLC
ACHN renal = tested on: ACHN renal
BT-549 breast = tested on: BT-549 breast
CAKI-1 renal = tested on: CAKI-1 renal
CCRF-CEM leukemia = tested on: CCRF-CEM leukemia
COLO 205 colon = tested on: COLO 205 colon
DU-145 prostate = tested on: DU-145 prostate
EKVX NSCLC = tested on: EKVX NSCLC
HCC-2998 colon = tested on: HCC-2998 colon
HCT-116 colon = tested on: HCT-116 colon
HCT-15 colon = tested on: HCT-15 colon
HL-60(TB) leukemia = tested on: HL-60(TB) leukemia
HOP-62 NSCLC = tested on: HOP-62 NSCLC
HOP-92 NSCLC = tested on: HOP-92 NSCLC
HS 578T breast = tested on: HS 578T breast
HT29 colon = tested on: HT29 colon
IGROV1 ovarian = tested on: IGROV1 ovarian
K-562 leukemia = tested on: K-562 leukemia
KM12 colon = tested on: KM12 colon
LOX IMVI melanoma = tested on: LOX IMVI melanoma
M14 melanoma = tested on: M14 melanoma
MALME-3M melanoma = tested on: MALME-3M melanoma
MCF7 breast = tested on: MCF7 breast
MDA-MB-231 breast = tested on: MDA-MB-231 breast
MDA-MB-435 = tested on: MDA-MB-435
MDA-N = tested on: MDA-N
NCI-H226 lung = tested on: NCI-H226 lung
NCI-H23 lung = tested on: NCI-H23 lung
NCI-H460 lung = tested on: NCI-H460 lung
NCI-H522 lung = tested on: NCI-H522 lung
NCI/ADR-RES ovarian = tested on: NCI/ADR-RES ovarian
OVCAR-3 ovarian = tested on: OVCAR-3 ovarian
OVCAR-4 ovarian = tested on: OVCAR-4 ovarian
OVCAR-5 ovarian = tested on: OVCAR-5 ovarian
OVCAR-8 ovarian = tested on: OVCAR-8 ovarian
PC-3 prostate = tested on: PC-3 prostate
RPMI-8226 leukemia = tested on: RPMI-8226 leukemia
RXF 393 renal = tested on: RXF 393 renal
SF-268 CNS = tested on: SF-268 CNS
SF-295 CNS = tested on: SF-295 CNS
SF-539 CNS = tested on: SF-539 CNS
SK-MEL-2 melanoma = tested on: SK-MEL-2 melanoma
SK-MEL-28 melanoma = tested on: SK-MEL-28 melanoma
SK-MEL-5 melanoma = tested on: SK-MEL-5 melanoma
SK-OV-3 ovarian = tested on: SK-OV-3 ovarian
SN12C renal = tested on: SN12C renal
SNB-19 CNS = tested on: SNB-19 CNS
SNB-75 CNS = tested on: SNB-75 CNS
SW-620 colon = tested on: SW-620 colon
T-47D breast = tested on: T-47D breast
TK-10 renal = tested on: TK-10 renal
U251 CNS = tested on: U251 CNS
UACC-257 melanoma = tested on: UACC-257 melanoma
UACC-62 melanoma = tested on: UACC-62 melanoma
UO-31 renal = tested on: UO-31 renal
MOLT-4 leukemia = tested on: MOLT-4 leukemia
SR leukemia = tested on: SR leukemia

Measured: TGI

O=C(/C(=C(/O)c1ccccc1)c1nc2ccccc2sc1=O)c1ccccc1
72.3 µM: HT29 colon
72.8 µM: NCI-H226 lung
30.5 µM: NCI-H460 lung
68 µM: NCI-H23 lung | NCI-H522 lung
54.3 µM: SK-MEL-5 melanoma
45 µM: K-562 leukemia
6.51 µM: CCRF-CEM leukemia
75 µM: SF-539 CNS
59.7 µM: HCC-2998 colon
36.3 µM: OVCAR-3 ovarian
33.3 µM: M14 melanoma
75.5 µM: MCF7 breast
41.8 µM: RPMI-8226 leukemia
20.7 µM: HL-60(TB) leukemia
90.5 µM: SN12C renal
46.2 µM: UACC-257 melanoma
74.9 µM: SF-295 CNS
74.4 µM: NCI/ADR-RES ovarian | UO-31 renal
77.3 µM: SK-OV-3 ovarian
44.1 µM: HOP-62 NSCLC
76 µM: SK-MEL-2 melanoma
not listed: MOLT-4 leukemia | SR leukemia
> 100 µM: all other assays above

CC1CC/C(=C\c2ccc(F)cc2)C2=C1C(c1ccc(F)cc1)N1C(=O)CSC1=N2 (centres undefined)
60.6 µM: MOLT-4 leukemia
not listed: A549 NSCLC | HCC-2998 colon | HOP-62 NSCLC | HOP-92 NSCLC | NCI-H522 lung | OVCAR-4 ovarian | OVCAR-5 ovarian | SNB-75 CNS | SR leukemia
> 100 µM: all other assays above

Cc1cc(-n2nnc(C(=O)O)c2-c2ccccc2)c2ccc(Cl)cc2n1
not listed: HOP-62 NSCLC | RPMI-8226 leukemia | SR leukemia
> 100 µM: all other assays above

N#CC(CCN1CCC(Nc2ccccc2)(c2nnnn2C2CCCCC2)CC1)(c1ccccc1)c1ccccc1
not listed: CAKI-1 renal | HOP-92 NSCLC | T-47D breast
> 100 µM: all other assays above

From PubChem BioAssay (NCI)
